Values of other authors in patent US11013707B2, “Administration of oral methyldopa” (ImmunoMolecular Therapeutics, LLC., priority 2018, dated 2021).
Like-named read-outs stand apart in the source and are kept apart here.

Legend:
[1] = man, average
[2] = in vivo

| absorption compared with the L isomer (humans, Au et al. 1972) | fraction of the dose available to the systemic circulation as free α-methyldopa ([1]; administered as tablets) | fraction of the dose available to the systemic circulation as free α-methyldopa ([1]; after an oral solution) | half-life [2] | SMILES | pharmacologic activity (literature, patients with hypertension) |
| --- | --- | --- | --- | --- | --- |
| much less readily absorbed |  |  |  | C[C@@](N)(Cc1ccc(O)c(O)c1)C(=O)O [D-α-methyldopa, D-α-Methyl-3,4-dihydroxyphenylalanine] | no pharmacologic activity |
|  | 27% | 25% | about 105 minutes | C[C@](N)(Cc1ccc(O)c(O)c1)C(=O)O [α-methyldopa, L-α-Methyl-3,4-dihydroxyphenylalanine] |  |
